This is an account of results in patent US11360080B2, “AhR-ROR-γt complex as a biomarker and therapeutic target for autoimmune disease and IL-17A-associated disease” (NATIONAL HEALTH RESEARCH INSTITUTES, priority 2018, dated 2022).

The target of one assay is T1, HGK (MAP4K4) (Homo sapiens, UniProt O95819).
T1 construct: Recombinant proteins of kinase domains of various MAP4Ks were used
Briefly: In vitro kinase assay, recombinant kinase domain, MBP as substrate. It counts as biochemical. On the procedure: (§1) GLK kinase activity was determined by measuring the rate of ADP production in the in vitro kinase reaction using ADP-GLO™ Kinase Assay kit. For the kinase reaction, recombinant proteins of the GLK kinase-domain (1 μg) were incubated with recombinant proteins of kinase-dead PKCθ (K409W; 0.15 μg) plus ATP (0.1 mM) or myelin basic protein (MBP) plus ATP (0.1 mM) in kinase buffer (40 mM Tris-HCl, pH7.5.20 mM MgCl2, 0.1 mg/ml BSA, 10 mM DTT and 0.1 mM Na3VO4) for 30 min at room temperature. We studied whether GLK inhibitors also suppress cancer cell migration. […] Moreover, both C1 (verteporfin) and C2 (alexidine dihydrochloride) treatments suppressed tumor growth in the xenograft mouse model using TC-1 lung cancer cells (FIG. 15). To study whether GLK deficiency results in a reduction of lung cancer metastasis, we used a metastatic Lewis lung carcinoma (LLC) mouse model by tail vein injection of luciferase-expressing LLC (LLC/luc) cells. We identified two GLK inhibitors (verteporfin and alexidine dihydrochloride)) using cell-based assays and in vitro kinase assays. […] The dimerization of Flag-tagged GLK protein and GFP-GLK fusion protein was indeed blocked by the C1 (verteporfin) treatment (FIG. 16C). We treated the LLC/luc cells-containing mice with the GLK inhibitor C1 (verteporfin) or C2 (alexidine dihydrochloride) by intravenous injection every 3 days for 30 days (FIG. 16D). The luciferase activity of LLC/luc cells in the mice was detected by In Vivo Imaging System. The excised lungs were weighed and subjected to H&E staining. The luciferase activity of LLC/luc cells in the lung of injected mice was reduced by the treatment of C1 (verteporfin) or C2 (alexidine dihydrochloride) (FIGS. 16E-F). […] Moreover, the interaction between GLK and IQGAP1 in the lung tissues were inhibited by the treatment of C1 (verteporfin) or C2 (alexidine dihydrochloride) (FIG. 16H, upper panel), and IQGAP1 phosphorylation was in the lung tissues were inhibited (FIG. 16H, lower panel). […] Inhibition of kinase activity of GLK (MAP4K3) or other MAP4Ks was determined by in vitro kinase assays using myelin basic protein (MBP) as a substrate. Recombinant proteins of kinase domains of various MAP4Ks were used. C1, verteporfin: C2, alexidine dihydrochloride.

The next assay addresses T2, HPK1 (MAP4K1) (Homo sapiens, UniProt Q92918).
T2 construct: Recombinant proteins of kinase domains of various MAP4Ks were used
The assay is described as above. It counts as biochemical. The procedure:
as §1

Another assay has as its target T3, KHS (MAP4K5) (Homo sapiens, UniProt Q9Y4K4).
T3 construct: Recombinant proteins of kinase domains of various MAP4Ks were used
Described as above. It counts as biochemical. On the procedure:
as §1

The subject of a further assay is CIA in wild-type mice. The assay can be described thus: Collagen-induced arthritis (CIA) induction in wild-type mice. It counts as in vivo, mouse. The source says: (A to C) Effect of the GLK inhibitor C1 (verteporfin) administration (0.556 nmole/g every 3 days for 30 days) on serum IL-17A and autoantibodies in Lck-GLK Tg mice. (B) ELISA of indicated serum cytokines in Lck-GLK Tg mice treated with C1 (verteporfin) or PBS. (C) ELISA of serum autoantibodies in Lck-GLK Tg mice treated with C1 (verteporfin) or PBS. Means±SEM are shown. (D) Experimental autoimmune encephalomyelitis (EAE) induction in wild-type mice treated with PBS, or the GLK inhibitor C1 (verteporfin) and C2. Clinical scores are presented on a scale of 1 to 5 (left panel). ELISA of IL-17A in the sera from MOG-immunized mice at day 16 (right panel). (E) Collagen-induced arthritis (CIA) induction in wild-type mice treated with the GLK inhibitor C1 (verteporfin) or PBS. Clinical scores are presented on a scale of 1 to 16 (left panel). ELISA of IL-17A in the sera from collagen-immunized mice at day 28. Means±SEM are shown. *, P value<0.05; **, P value<0.01; ***, P value<0.001 (two-tailed Student's […]). C1 denotes verteporfin; C2 denotes alexidine dihydrochloride.
Moreover, overproduction of autoantibodies in Lck-GLK Tg mice were also abolished by C1 (verteporfin) treatment (FIG. 10C). […] To further verify that the GLK inhibitors also works in IL-17A-mediated animal models, we challenged wild-type mice with C1 (verteporfin) or C2 (alexidine dihydrochloride) during EAE and CIA induction.

In another assay the target is T4, GLK dimers (Homo sapiens, UniProt Q8IVH8).
T4 construct: expressed in transfected cells; host or cells: HEK293T
Briefly: Co-immunoprecipitation of Flag-tagged GLK and GFP-fusion GLK in HEK293T cells. It counts as cell-based. The following applies: HEK293T co-IP. From the text:
(A) The molecular docking of GLK kinase domain structure with C1 (verteporfin). A three-dimensional structure model depicts the binding of C1 to the predicted GLK kinase domain containing phosphorylated Ser-170. The putative binding affinity was −7.4 kcal/mol. (B) The molecular docking of GLK kinase domain structure with C2 (alexidine dihydrochloride). A three-dimensional structure model depicts the binding of C2 to the predicted GLK kinase domain containing phosphorylated Ser-170. The putative binding affinity was −7.0 kcal/mol. (C) Co-immunoprecipitation (co-IP) of Flag-tagged GLK and GFP-fusion GLK using lysates of HEK293T cells co-transfected with Flag-GLK and GFP-GLK plasmids. Cells were treated with C1 (verteporfin) or C2 (alexidine dihydrochloride). (D) Administration of the GLK inhibitor C1 (0.556 nmole/g) or C2 (0.085 nmole/g) every 3 days for 30 days in the LLC/luc metastatic lung cancer mouse model. (E) The luciferase activity in mice treated with C1 (verteporfin), C2 (alexidine dihydrochloride), or vehicle was detected by IVIS Spectrum. (F) Luminescent intensity of photons emitted from LLC/luc cells in the images in (e) was quantified. (G) Representative immunohistochemistry of H&E in lung tissues from mice treated with C1 (verteporfin), C2, or vehicle. Scale bar, 0.5 cm. […]

The structures appear in SMILES notation. Structures can show the parent of a compound that is named as a salt.

T3 sequence (Q9Y4K4 20-277 limits assumed, species assumed): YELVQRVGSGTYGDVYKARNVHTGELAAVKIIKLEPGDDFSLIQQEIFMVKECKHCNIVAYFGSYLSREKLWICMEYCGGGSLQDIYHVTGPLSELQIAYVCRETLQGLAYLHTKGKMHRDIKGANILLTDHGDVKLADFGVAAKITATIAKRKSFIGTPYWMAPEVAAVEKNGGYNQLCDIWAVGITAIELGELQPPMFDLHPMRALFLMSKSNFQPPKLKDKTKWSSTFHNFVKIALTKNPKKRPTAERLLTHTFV
T2 sequence (Q92918 17-274 limits assumed, species assumed): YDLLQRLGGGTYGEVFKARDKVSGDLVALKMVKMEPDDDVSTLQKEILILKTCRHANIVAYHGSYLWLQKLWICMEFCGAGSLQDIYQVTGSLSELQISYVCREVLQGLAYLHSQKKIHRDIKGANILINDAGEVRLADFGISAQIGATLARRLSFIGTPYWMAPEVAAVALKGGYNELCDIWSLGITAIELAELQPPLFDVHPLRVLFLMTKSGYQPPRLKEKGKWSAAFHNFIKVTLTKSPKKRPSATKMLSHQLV
T1 sequence (O95819 25-289 limits assumed, species assumed): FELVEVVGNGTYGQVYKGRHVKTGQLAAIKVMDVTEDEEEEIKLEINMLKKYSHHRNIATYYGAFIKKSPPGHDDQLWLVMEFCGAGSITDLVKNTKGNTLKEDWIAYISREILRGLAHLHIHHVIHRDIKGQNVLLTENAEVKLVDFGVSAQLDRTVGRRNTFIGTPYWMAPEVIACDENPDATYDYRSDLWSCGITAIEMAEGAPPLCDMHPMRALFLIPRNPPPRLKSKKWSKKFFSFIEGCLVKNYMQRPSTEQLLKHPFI
T4 sequence (Q8IVH8 whole entry): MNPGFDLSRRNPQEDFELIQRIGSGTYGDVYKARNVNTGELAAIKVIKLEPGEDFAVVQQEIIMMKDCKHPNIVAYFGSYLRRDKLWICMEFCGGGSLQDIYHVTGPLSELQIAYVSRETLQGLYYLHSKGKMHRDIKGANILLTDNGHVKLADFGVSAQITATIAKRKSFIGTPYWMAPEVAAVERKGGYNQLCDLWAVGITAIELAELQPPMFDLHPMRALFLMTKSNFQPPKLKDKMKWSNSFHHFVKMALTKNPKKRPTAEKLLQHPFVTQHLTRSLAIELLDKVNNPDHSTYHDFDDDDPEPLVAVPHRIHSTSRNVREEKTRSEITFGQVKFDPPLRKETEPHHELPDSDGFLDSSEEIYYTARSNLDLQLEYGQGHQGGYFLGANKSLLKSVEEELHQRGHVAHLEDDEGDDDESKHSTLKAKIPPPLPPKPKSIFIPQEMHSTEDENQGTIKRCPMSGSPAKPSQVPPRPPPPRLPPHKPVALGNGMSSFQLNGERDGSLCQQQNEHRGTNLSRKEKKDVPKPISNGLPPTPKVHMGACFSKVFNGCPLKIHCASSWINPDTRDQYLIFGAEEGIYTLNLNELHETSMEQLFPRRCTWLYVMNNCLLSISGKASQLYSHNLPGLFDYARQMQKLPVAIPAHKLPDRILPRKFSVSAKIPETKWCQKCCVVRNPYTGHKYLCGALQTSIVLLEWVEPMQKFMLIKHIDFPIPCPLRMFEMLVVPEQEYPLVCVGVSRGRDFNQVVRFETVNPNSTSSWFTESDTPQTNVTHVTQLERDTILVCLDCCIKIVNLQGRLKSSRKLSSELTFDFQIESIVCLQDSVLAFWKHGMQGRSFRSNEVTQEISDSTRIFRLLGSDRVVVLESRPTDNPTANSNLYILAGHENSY

Turning to `CCCCC(CC)CNC(=N)NC(=N)NCCCCCCNC(=N)NC(=N)NCC(CC)CCCC` (stereo not drawn) [C2, alexidine dihydrochloride], the figures for the IC50 at HGK (MAP4K4), at HPK1 (MAP4K1) and on KHS (MAP4K5) were 0.0218 µM, 0.00614 µM and 0.0183 µM, respectively.

`C=Cc1c(C)c2cc3nc(cc4[nH]c(cc5nc(cc1[nH]2)C(C)=C5CCC(=O)O)c(CCC(=O)OC)c4C)[C@@]1(C)C3=CC=C(C(=O)OC)[C@H]1C(=O)OC` [C1, verteporfin]: the results for the concentration for half-maximal inhibition (IC50) at HGK (MAP4K4), on HPK1 (MAP4K1) and on KHS (MAP4K5) were 0.00492 µM, 0.00791 µM and 0.0439 µM, respectively. Besides, in the assay on CIA in wild-type mice (day 28), the “serum IL-17A levels in CIA” value was “inhibited”. In addition, the “disease severity (clinical score) in CIA” value in the assay on CIA in wild-type mice (mouse, in vivo) is given as “inhibited”. For the same compound, the “dimerization of Flag-tagged GLK protein and GFP-GLK fusion protein” value on GLK dimers was “blocked”.
